Among the test systems are A498 renal; UACC-257 melanoma; CCRF-CEM leukemia; TK-10 renal; SF-268 CNS; HT29 colon; SW-620 colon; MALME-3M melanoma; OVCAR-3 ovarian; SNB-75 CNS.
Test in all cases: NCI anticancer screen, dose series, 48 h

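A five-concentration, 48-hour dose response in 96-well plates underlies each endpoint, interpolated linearly between surrounding concentrations. GI50 marks 50% less growth. TGI is the concentration that stops growth completely.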

Consider `O=c1c2ccccc2oc2ccc(OCCCCCCN3CCCCCC3)cc12`, for which the GI50 was 2.49 µM with A498 renal; 2.52 µM in the test on UACC-257 melanoma; 3.17 µM in the test with CCRF-CEM leukemia; 3.94 µM with TK-10 renal; 4.35 µM in the test on SF-268 CNS; 1.91 µM in the test with HT29 colon. Also, the GI50 in the test with SW-620 colon was 3.11 µM; in the test on MALME-3M melanoma, 1.93 µM; with OVCAR-3 ovarian, 4.09 µM; in the test on SNB-75 CNS, 3.11 µM. Moreover, the TGI in the test with A498 renal amounted to 6.49 µM; in the test with UACC-257 melanoma, 5.28 µM; in the test on CCRF-CEM leukemia, 12 µM; in the test with TK-10 renal, 17.3 µM; in the test with SF-268 CNS, 20 µM; in the test on HT29 colon it was 6.57 µM. Moreover, the TGI in the test on SW-620 colon is 11 µM; in the test on MALME-3M melanoma, 3.68 µM; in the test with OVCAR-3 ovarian, 16.1 µM; with SNB-75 CNS, 14.1 µM.

Regarding `CN(C=O)/C=C/c1cc(O)ccc1O`, the TGI in the test on A498 renal is above 100 µM; in the test with UACC-257 melanoma, 52.7 µM; in the test on CCRF-CEM leukemia it was 54.7 µM; with TK-10 renal it was 54.1 µM; in the test on SF-268 CNS, 48.5 µM; in the test on HT29 colon, 49.2 µM. The TGI was 37.9 µM in the test with SW-620 colon, above 63.3 µM in the test on MALME-3M melanoma, 32.5 µM in the test on OVCAR-3 ovarian and above 59 µM in the test on SNB-75 CNS.

In the case of `CCCCCCCCCCCCCCCCOC(=O)c1cc(O)cc(C(=O)OCCCCCCCCCCCCCCCC)c1`, the TGI in the test on A498 renal, in the test on UACC-257 melanoma, in the test on CCRF-CEM leukemia, in the test with TK-10 renal, in the test on SF-268 CNS and with HT29 colon was above 100 µM in each case. In addition, the TGI in the test on SW-620 colon, in the test on MALME-3M melanoma, in the test on OVCAR-3 ovarian and in the test with SNB-75 CNS was above 100 µM each time.

In the case of `COc1ccc(CCc2cc(OC)c(OC)c(OC)c2)cc1`, the TGI was 8.62 µM in the test with A498 renal; 47.7 µM in the test on UACC-257 melanoma; 12.4 µM in the test on CCRF-CEM leukemia; above 97.9 µM in the test with TK-10 renal; 19.6 µM with SF-268 CNS; 1.44 µM in the test on HT29 colon. The TGI in the test on SW-620 colon was above 100 µM; in the test on MALME-3M melanoma, 39.1 µM; in the test on OVCAR-3 ovarian it was 0.523 µM; with SNB-75 CNS it was above 100 µM.

Take `C[N+](C)(C)CC1CCCC(C[N+](C)(C)C)C1O` (stereo not given): the TGI in the test with A498 renal, with UACC-257 melanoma, with CCRF-CEM leukemia, with TK-10 renal, with SF-268 CNS and with HT29 colon was above 100 µM in each case. In addition, the TGI in the test with SW-620 colon, in the test with MALME-3M melanoma, with OVCAR-3 ovarian and in the test with SNB-75 CNS was above 100 µM throughout.

As for `CCOP(=O)(Nc1ccc2oc(=O)c3ccccc3c2c1)OCC`, the TGI in the test on A498 renal, in the test on UACC-257 melanoma, in the test on CCRF-CEM leukemia, with TK-10 renal, in the test with SF-268 CNS and with HT29 colon was above 100 µM throughout. Moreover, the TGI in the test on SW-620 colon, in the test with MALME-3M melanoma, with OVCAR-3 ovarian and with SNB-75 CNS was above 100 µM throughout.

For the compound `COc1cccc(NC(=O)C(=O)C(C(C)=O)c2nc3ccc(Cl)cc3[nH]c2=O)c1` (stereo not given), the TGI with A498 renal, in the test on UACC-257 melanoma, in the test on CCRF-CEM leukemia, in the test on TK-10 renal, in the test with SF-268 CNS and in the test with HT29 colon was above 100 µM throughout. The TGI with SW-620 colon, in the test with MALME-3M melanoma, in the test with OVCAR-3 ovarian and with SNB-75 CNS was above 100 µM in each case.

For `COc1cc(/C=C(\C#N)C(N)=C(C#N)C#N)cc(O)c1O`, the TGI with A498 renal was above 100 µM; in the test with UACC-257 melanoma, above 100 µM; in the test with CCRF-CEM leukemia, above 81.1 µM; with TK-10 renal, above 100 µM; in the test on SF-268 CNS, above 100 µM; with HT29 colon it was above 100 µM. The TGI with SW-620 colon, in the test on MALME-3M melanoma, with OVCAR-3 ovarian and in the test with SNB-75 CNS was above 100 µM in each case.

As for `CC(NC(=O)c1ccccc1)(C(=O)O)C(=O)O`, the TGI in the test on A498 renal, with UACC-257 melanoma, with CCRF-CEM leukemia, with TK-10 renal, in the test with SF-268 CNS and with HT29 colon was above 100 µM in each case. The TGI in the test on SW-620 colon, with MALME-3M melanoma, with OVCAR-3 ovarian and in the test with SNB-75 CNS was above 100 µM in each case.

Consider `O=C(Nc1ccccc1C(=O)N/N=C(\c1ccccc1)c1ccccn1)c1ccc(F)cc1`, for which the GI50 with A498 renal was 1.37 µM; with UACC-257 melanoma, 0.793 µM; in the test on CCRF-CEM leukemia, 0.121 µM; in the test with TK-10 renal, 0.408 µM; in the test on SF-268 CNS, 0.364 µM; in the test on HT29 colon it was 0.165 µM. In addition, the GI50 is 0.448 µM in the test with SW-620 colon, 0.767 µM in the test with MALME-3M melanoma, 0.211 µM in the test on OVCAR-3 ovarian and 4.81 µM with SNB-75 CNS. The TGI in the test on A498 renal is 9.43 µM; in the test on UACC-257 melanoma, above 100 µM; in the test with CCRF-CEM leukemia, above 100 µM; with TK-10 renal it was above 100 µM; in the test on SF-268 CNS it was above 100 µM; with HT29 colon, above 100 µM. The TGI in the test with SW-620 colon, with MALME-3M melanoma, in the test with OVCAR-3 ovarian and in the test on SNB-75 CNS was above 100 µM throughout.

The values are drawn from PubChem BioAssay (NCI).
